Measured values: patent US20240415804A1, “METHOD OF TREATING PANCREATIC CANCER” (University of South Florida, priority 2022, published 2024)

Experiments:
miR-155 = miR-155 gene expression by RT-qPCR in Panc02 cells; type: cell-based, mouse; settings: API 40 μM, 24 h, vs DMSO vehicle
Procedure: MiR-155 is known to be overexpressed in different cancers, including PC^21, 23. The inventors first assessed whether apigenin could modulate the expression of miR-155 in PC cells. Murine PC cell lines Panc02 and UN-KC-6141 as well as the human PC cell line MiaPaCa-2 were treated with API (40 μM) or DMSO vehicle for 24 h and the expression of miR-155 was examined using RT-qPCR assay. […] Since API is known to inhibit the growth of cancer cells, including PC cells^39-43, 47-50, the same PC cell lines were treated with API (40 μM) or DMSO (vehicle) for 24 h and examined cell viability using MTT assay. […] Moreover, Panc02 and UN-KC-6141 cells were then treated with API at a dose dependent concentration (10, 20, 30, 40, 50 μM) and detected apoptosis using flow cytometry (Annexin V and PI).
miR-155 is implicated in the development of pancreatic tumors from pancreatic intraepithelial neoplasia (PanIN) lesions, and is overexpressed in PC^23. The inventors examined whether the depletion of miR-155 modulated PC viability. Murine and human PC cell lines were transfected with miR-155 inhibitor (i.e., MMU-MIR-155-5P/HSA-MIR-155-5P) and scrambled miRNA at a concentration of 100 nM for 24 h and cell viability determined using an MTT assay. The expression of miR-155 was examined using an RT-qPCR assay as well. […]

UN-KC-6141 cells = test: Apoptosis by flow cytometry (Annexin V and PI), UN-KC-6141; type: cell-based, mouse; settings: API 10, 20, 30, 40, 50 μM, 24 h
Procedure: Panc02 and UN-KC-6141 cells were seeded in 6-well plates allowed to grow to 50-60% confluency. Cells were then treated with API at a dose-dependent concentration (10, 20, 30, 40, 50 μM) or DMSO (1%) as vehicle control and incubated for 24 h at 37° C. in a humidified atmosphere of 5% CO2. Cells were collected and stained with a FITC Annexin V Apoptosis Detection Kit I (BD Bioscience, San Jose, CA, USA) according to the manufacturer's instructions. Acquisition of samples was performed using a flow cytometer BD LSRII (BD Biosciences Immunocytometry Systems, San Jose, CA, USA). FlowJo v10.8 software (TreeStar Inc., Ashland, OR, USA) was used for data analysis.

Bcl-2 = test: Western blot of Bcl-2 protein in UN-KC-6141 cells; type: cell-based, mouse; settings: API 40 μM
Procedure: Single-cell suspensions of BM, digested pancreatic tumors cells and UN-KC-6141 cells treated with API (40 μM) were lysed with radioimmunoprecipitation buffer (Sigma-Aldrich), quantified with a BCA Protein Assay kit (Thermo Fisher Scientific, Waltham, MA, USA), resolved by SDS-PAGE (Thermo Fisher Scientific) and transferred onto a nitrocellulose membrane as previously described. Membranes were probed with either anti-SHIP-1 (Santa Cruz Biotechnology, Dallas, TX, USA), anti-iNOS (Cell Signaling Technology) or anti-Bcl-2 (Cell Signaling Technology, Danvers, MA, USA), all at a dilution of 1:1000. All blots were re-probed with a housekeeping protein, HRP-conjugated anti-β-actin (Sigma-Aldrich), at a dilution of 1:20,000. Membranes were then probed with the respective secondary anti-mouse or rabbit IgG HRP-conjugated antibodies (1:1000) of SHIP-1 and iNOS. Detection of SHIP-1, iNOS and β-actin proteins was performed using Super Signal West Pico or Femto Chemiluminescent Substrates (Thermo Fisher Scientific) and then imaged on a Bio-Rad Chemi Doc XRS Imaging System. Normalized densitometric ratios (divided by β-actin) were determined by quantifying WB results using Image J.

[1] = test system: heterotopic (H) mouse model of PC (HPC); settings: earlier report (ref 55); cited from earlier work
[2] = test system: orthotopic (O) mouse model of PC (OPC); settings: earlier report (ref 12), cited from earlier work

## O=c1cc(-c2ccc(O)cc2)oc2cc(O)cc(O)c12 [API, 40,5,7-Trihydroxyflavone, 5,7-Dihydroxy-2-(4-hydroxyphenyl)-4-benzopyrone]
miR-155
  miR-155 gene expression: significantly suppressed
UN-KC-6141 cells
  apoptosis (Annexin V and PI): induces apoptosis
Bcl-2
  Bcl-2 protein expression (WB): significant decrease
[1]
  survival: increased
  tumor growth: reduced
[2]; API treatment of OPC mice
  necrosis of pancreatic tumor cells (H&E staining): induced necrosis
[2]; OPC mouse model
  tumor growth: reduced
